The subject of data set [1] is iPS cell-derived differentiated neurocyte alone. Put plainly: Neurite morphology of iPS cell-derived neurocytes infected with hMECP2-shRNA lentivirus, single culture. In kind it is cell-based, human. The following applies: FIG. 3. On the procedure:
(§1) Commercially available iPS-cell-derived neurocytes (#EX-SeV-CW50065, Elixirgen Scientific, Inc.) and commercially available human primary astrocytes (#N7805-100, Thermo Fisher Scientific Inc.) were thawed and used to prepare cell suspensions with culture media at 1×10^4 cells/well and 2.5×10^3 cells/well respectively. After the Laminine solution was removed, the suspension was seeded at 50 μL/well, and cocultured. For single culture, 1×10^4 cells/well neurocytes were seeded at 50 μL/well. The culture continued under 5% CO2 at 37° C. in the incubator for 6 weeks. Half the amount of the culture medium was replaced once in 3 to 4 days. The culture medium used was a culture medium specified by Elixirgen Scientific, Inc. for the period of 1 week after the seeding. Then, the culture medium used was Neurobasal Plus supplemented with 2% B-27 Plus, 1% GlutaMAX, 200 μM ascorbic acid, 10% Neurocyte culture medium, and 1% penicillin-streptomycin.
(§2) At 4 days after the cell seeding, virus solutions for expression of the respective shRNAs were added under MOI 0.1 and MOI 1, and allowed to cause infection. MOI was prepared in accordance with only the number of neurocytes. At 7 hours after the infection, the whole amount of culture medium was replaced. To the culture medium in the wells to be rescued, BDNF, which is known for the therapeutic effect for Rett syndrome, was added at 50 ng/mL. […]

A further data set has as its system hMECP2. The experiment in a line: Ratio of neurocytes with MECP2 knocked down versus amount of lentivirus infection (mCherry fluorescence). The following applies: coculture. In kind it is cell-based, human. From the text: As a lentivirus vector for transfection, an hMECP2-shRNA lentivirus vector plasmid was used. This plasmid vector contains, downstream of a U6 promoter, a base sequence of SEQ ID NO: 3 ([…]) encoding an shRNA complementary to the 3′ UTR of the hMECP2 gene. Additionally, as a control lentivirus vector, an NC-shRNA lentivirus vector plasmid was used. This plasmid vector contains, downstream of a U6 promoter, a non-mammalian shRNA having a base sequence of SEQ ID NO: 4 ([…]).
At 4 days after the cell seeding, virus solutions for expression of the respective shRNAs were added under MOI 0.1 and MOI 1, and allowed to cause infection. MOI was prepared in accordance with only the number of neurocytes. At 7 hours after the infection, the whole amount of culture medium was replaced. To the culture medium in the wells to be rescued, BDNF, which is known for the therapeutic effect for Rett syndrome, was added at 50 ng/mL.

Data set [2] has as its system iPS cell-derived differentiated neurocyte cocultured with human primary astrocyte. The experiment in a line: Neurite morphology of iPS cell-derived neurocytes with hMECP2 knockdown, coculture with human primary astrocytes (phase-contrast observation, BDNF rescue). It counts as cell-based. Particulars: observed Day 11 to Day 42. On the procedure: as §1, §2

These results are taken from patent US20230303972A1, “IN VITRO GENETIC DISEASE MODEL CELL AND METHOD FOR PRODUCING THE SAME” (Ricoh Company, Ltd., priority 2022, published 2023).

Take “hMECP2-shRNA: shRNA complementary to the 3′ UTR of the hMECP2 gene, encoded by SEQ ID NO: 3, expressed from a lentivirus vector (DNA GGGTAGGGCTCTGACAAAGCTTCCCGATTAACTGAAATAAA)”: the “Knockdown effect on hMECP2 evaluated by number of neurites and length of the neurite” value in data set [1] is “neither a decrease in the number of neurites nor a change in the length of the neurite”; in data set [2] (coculture of neurocyte and human primary astrocyte, FIG. 1 a to f) it was “chronological decrease in the number of neurites and decrease in the length of the neurite”. For the same molecule, the “Ratio of neurocytes with MECP2 knocked down” value is reported as “in substantially all the neurocytes” in the data set with hMECP2 (infection with a large amount of lentivirus, FIG. 5) and “in a part of the neurocytes” in the data set with hMECP2 (infection with a small amount of lentivirus, FIG. 4).

B1: BDNF: BDNF, which is known for the therapeutic effect for Rett syndrome, added to culture medium (protein, UniProt P23560 19-247, looked up)
Neurotrophic factor BDNF …: APMKEANIRGQGGLAYPGVRTHGTLESVNGPKAGSRGLTSLADTFEHVIEELLDEDQKVRPNEENNKDADLYTSRVMLSSQVPLEPPLLFLLEEYKNYLDAANMSMRVRRHSDPARRGELSVCDSISEWVTAADKKTAVDMSGGTVTVLEKVPVSKGQLKQYFYETKCNPMGYTKEGCRGIDKRHWNSQCRTTQSYVRALTMDSKKRIGWRFIRIDTSCVCTLTIKRGR
For the molecule B1, the “Rescue of the hMECP2 knockdown effect (decrease in number and length of neurites)” value in data set [2] (BDNF 50 ng/mL in culture medium, hMECP2-shRNA lentivirus-infected neurocytes cocultured with astrocytes, FIG. 1 g to l) is reported as “improved”.
